The source of these data is patent US10195297B2, “Iron garnet nanoparticles for cancer radiotherapy and chemotherapy” (priority 2014, dated 2019).

The subject of test [1] is human NSCLC A549 cells. Description: MTS cytotoxicity studies of 166HoIG, 166HoIG-Pt and free Pt drugs (Example 6). The format is cell-based. The note with it: 24 h.
Method: Cytotoxicity studies. The studies involving human NSCLC A549 cells were carried out under standard conditions in a humidified, 37° C., 5% CO2 atmosphere incubator. The culture medium used for A549 was Roswell Park Memorial Institute with 10% fetal calf serum (FCS), 100 μg/mL streptomycin, 100 IU/mL penicillin and 2.0 mM L-glutamine (RPMI).
Suspensions of each type of neutron-activated nanoparticle were prepared in RPMI. Two control groups, RPMI alone and RPMI with cells not exposed to ^166Ho nanoparticles, were included in each 96-well plate. At least four replicates were done for each concentration and each control group. The cells were seeded at 5×10^4 cells/mL (100 μL/well) in 96-well plates and allowed to grow for 24 h after which time the RPMI was removed and replaced with 100 μL of RPMI that contained blank ^166HoIG or ^166HoIG-Pt. After an exposure time of 24 h on a microplate shaker in the incubator, the RPMI was removed and replaced with 100 μL of fresh RPMI. […] After 1 h incubation with the MTS solution, the absorbance was read at 490 nm using a Synergy™ H1 hybrid multi-mode microplate reader. The percent survival of cells treated by each concentration of nanoparticles was calculated using the following equation:
[formula] where Ad is the absorbance of cells treated with nanoparticles, Am is the absorbance of medium alone and Ac is the absorbance of cells without treatment.
In test [2] the test system is human NSCLC A549 cells. Description: MTS cytotoxicity of neutron-activated nanoparticles and free Pt drugs (Example 2). The format is cell-based. As to conditions: 24 h.
Method: The radioactivity of nanoparticles prior to administration to cells was determined using a 2470 WIZARD 2 automatic gamma counter. Studies involving human NSCLC A549 cells were carried out under standard conditions in a humidified, 37° C., 5% CO2 atmosphere incubator. The culture medium used for A549 cells was minimum essential medium to which had been added 10% fetal calf serum, 100 μg/mL streptomycin, 100 IU/mL penicillin and 2.0 mM L-glutamine. Cells were seeded at 5×10^4 cells/ml (100 μL/well) in 96-well plates and allowed to grow for 24 h after which time the medium was removed and replaced with medium and drug. After an exposure time of 24 h, the medium with drug was removed and replaced with 100 μL of fresh medium. To each well, 20 μL of CellTiter 96® AQueous One Solution Cell Proliferation Assay (MTS) solution was added. After 2 h incubation with the MTS solution, the absorbance was read at 490 nm using a Synergy™ H1 hybrid multi-mode microplate reader. The percent survival of cells treated by each concentration of drug was calculated using the following equation:
[formula] where Ad is the absorbance of cells treated with drug, Am is the absorbance of medium alone and Ac is the absorbance of cells without treatment. The % survival data was fit to exponential regression and IC50 values calculated.

In the case of `N.N.O=C([O-])C1(C(=O)[O-])CCC1.[Pt+2]` [Free carboplatin, carboplatin], the synergy with radiation entry in the test on human NSCLC A549 cells [1] was “did not act synergistically with radiation”.

Take `N.N.[Cl][Pt][Cl]` [cis, cisplatin]: the “synergy with the radioactive Ho” value with human NSCLC A549 cells [2] is reported as “act synergistically”.
